Data taken from paper PMC5385487, “Structural insights into the production of 3-hydroxypropionic acid by aldehyde dehydrogenase from Azospirillum brasilense” (Scientific Reports, 2017).

B1: α-ketoglutarate-semialdehyde dehydrogenase from Azospirillum basilensis (AbKGSADH) (enzyme, UniProt Q1JUP4 1-481, looked up)
chain: MANVTYTDTQLLIDGEWVDAASGKTIDVVNPATGKPIGRVAHAGIADLDRALAAAQSGFEAWRKVPAHERAATMRKAAALVRERADAIAQLMTQEQGKPLTEARVEVLSAADIIEWFADEGRRVYGRIVPPRNLGAQQTVVKEPVGPVAAFTPWNFPVNQVVRKLSAALATGCSFLVKAPEETPASPAALLRAFVDAGVPAGVIGLVYGDPAEISSYLIPHPVIRKVTFTGSTPVGKQLASLAGLHMKRATMELGGHAPVIVAEDADVALAVKAAGGAKFRNAGQVCISPTRFLVHNSIRDEFTRALVKHAEGLKVGNGLEEGTTLGALANPRRLTAMASVIDNARKVGASIETGGERIGSEGNFFAPTVIANVPLDADVFNNEPFGPVAAIRGFDKLEEAIAEANRLPFGLAGYAFTRSFANVHLLTQRLEVGMLWINQPATPWPEMPFGGVKDSGYGSEGGPEALEPYLVTKSVTVMAV
notes: α-ketoglutarate-semialdehyde dehydrogenase (KGSADH) of the alternative L-arabinose pathway, Azospirillum brasilense; the limits Met1 and Val481 are those of the domains told for the crystal structure; The vector adds a 6xHis tag and an rTEV protease site at the N-terminus; no cleavage step is described; also called aldehyde dehydrogenase from Azospirillum brasilense; 3-HP producing ALDH; source: …

Tests used:
[1] = target: T1, AbKGSADH (α-ketoglutarate-semialdehyde dehydrogenase) (Azospirillum brasilense, UniProt Q1JUP4); assay: X-ray crystal structure, […] Å in Table […] ([…] Å in text); conditions: NAD-binding site between N- and C-terminal domains
T1 construct: gene araE; Met1-Val481 modelled; tetramer about 200 kDa

[2] = target: the molecule itself; assay: crystal structure; apo-form and complex with NAD+; space group P4(3)22, two molecules in the asymmetric unit, tetramer generated by crystallographic two-fold symmetry; crystals from 16% PEG 3350, 0.1 M sodium cacodylate pH 6.5, 0.2 M MgCl2, 295 K

| Molecule | X-ray crystal structure, 2.30 Å in Table 1 (2.6 Å in text) [1] | stoichiometry N [2] |
| --- | --- | --- |
| NC(=O)c1ccc[n+]([C@@H]2O[C@H](COP(=O)(O)OP(=O)(O)OC[C@H]3O[C@@H](n4cnc5c(N)ncnc54)[C@H](O)[C@@H]3O)[C@@H](O)[C@H]2O)c1 [NAD^+] | determined the crystal structure of the protein in complex with NAD^+ |  |
| B1 |  | 4 |
